Measured values reported in ChEMBL document CHEMBL4308841, “Synthesis, in vitro antiproliferative activity, and kinase inhibitory effects of pyrazole-containing diarylureas and diarylamides” (Eur J Med Chem, 2018).

How the values were obtained:
A549 = assay: Growth inhibition of human A549/ATCC cells assessed as cell growth at 0.1 uM incubated for 48 hrs by sulforhodamine B assay relative to control; type: functional; conditions: A549, 48 h, read-out: Activity
MDA-MB-231 = assay: Growth inhibition of human MDA-MB-231 cells assessed as cell growth at 0.1 uM incubated for 48 hrs by sulforhodamine B assay relative to control; type: functional; conditions: MDA-MB-231, 48 h, read-out: Activity
Malme-3M = assay: Growth inhibition of human MALME-3M cells assessed as cell growth at 100 uM incubated for 48 hrs by sulforhodamine B assay relative to control; type: functional; conditions: read-out: Activity
HCT-15 = assay: Growth inhibition of human HCT15 cells assessed as cell growth at 1 uM incubated for 48 hrs by sulforhodamine B assay relative to control; type: functional; conditions: HCT-15, 48 h, read-out: Activity
NCI-H23 = assay: Growth inhibition of human NCI-H23 cells assessed as cell growth at 0.01 uM incubated for 48 hrs by sulforhodamine B assay relative to control; type: functional; conditions: NCI-H23, 48 h, read-out: Activity
KM12 = assay: Growth inhibition of human KM12 cells incubated for 48 hrs by sulforhodamine B assay; type: functional, cell-based; conditions: KM12, 48 h
SK-OV-3 = assay: Growth inhibition of human SKOV3 cells incubated for 48 hrs by sulforhodamine B assay; type: functional, cell-based; conditions: SK-OV-3, 48 h
MOLT-4 = assay: Growth inhibition of human MOLT4 cells assessed as cell growth at 0.01 uM incubated for 48 hrs by sulforhodamine B assay relative to control; type: functional; conditions: MOLT-4, 48 h, read-out: Activity
HOP-62 = assay: Growth inhibition of human HOP62 cells assessed as cell growth at 0.1 uM incubated for 48 hrs by sulforhodamine B assay relative to control; type: functional; conditions: HOP-62, 48 h, read-out: Activity
NCI-H460 = assay: Growth inhibition of human NCI-H460 cells assessed as cell growth at 0.01 uM incubated for 48 hrs by sulforhodamine B assay relative to control; type: functional; conditions: NCI-H460, 48 h, read-out: Activity
CCRF-CEM = assay: Growth inhibition of human CCRF-CEM cells incubated for 48 hrs by sulforhodamine B assay; type: functional, cell-based
NCI-H522 = assay: Growth inhibition of human NCI-H522 cells assessed as cell growth at 0.1 uM incubated for 48 hrs by sulforhodamine B assay relative to control; type: functional; conditions: NCI-H522, 48 h, read-out: Activity
ACHN [1] = assay: Growth inhibition of human ACHN cells incubated for 48 hrs by sulforhodamine B assay; type: functional, cell-based
SNB-19 = assay: Growth inhibition of human SNB19 cells incubated for 48 hrs by sulforhodamine B assay; type: functional, cell-based; conditions: SNB-19, 48 h
ACHN [2] = assay: Growth inhibition of human ACHN cells assessed as cell growth at 0.1 uM incubated for 48 hrs by sulforhodamine B assay relative to control; type: functional; conditions: read-out: Activity
T47D = assay: Growth inhibition of human T47D cells assessed as cell growth at 0.01 uM incubated for 48 hrs by sulforhodamine B assay relative to control; type: functional; conditions: read-out: Activity
HT-29 [3] = assay: Growth inhibition of human HT-29 cells incubated for 48 hrs by sulforhodamine B assay; type: functional, cell-based; conditions: HT-29, 48 h
OVCAR-8 = assay: Growth inhibition of human OVCAR8 cells assessed as cell growth at 0.01 uM incubated for 48 hrs by sulforhodamine B assay relative to control; type: functional; conditions: OVCAR-8, 48 h, read-out: Activity
DU-145 = assay: Growth inhibition of human DU145 cells assessed as cell growth at 1 uM incubated for 48 hrs by sulforhodamine B assay relative to control; type: functional; conditions: DU-145, 48 h, read-out: Activity
SF-295 = assay: Growth inhibition of human SF295 cells assessed as cell growth at 1 uM incubated for 48 hrs by sulforhodamine B assay relative to control; type: functional; conditions: SF-295, 48 h, read-out: Activity
ACHN [4] = assay: Growth inhibition of human ACHN cells assessed as cell growth at 0.01 uM incubated for 48 hrs by sulforhodamine B assay relative to control; type: functional; conditions: read-out: Activity
SK-MEL-5 = assay: Growth inhibition of human SK-MEL-5 cells incubated for 48 hrs by sulforhodamine B assay; type: functional, cell-based; conditions: SK-MEL-5, 48 h
K562 = assay: Growth inhibition of human K562 cells assessed as cell growth at 100 uM incubated for 48 hrs by sulforhodamine B assay relative to control; type: functional; conditions: K562, 48 h, read-out: Activity
HT-29 [5] = assay: Growth inhibition of human HT-29 cells assessed as cell growth at 0.1 uM incubated for 48 hrs by sulforhodamine B assay relative to control; type: functional; conditions: HT-29, 48 h, read-out: Activity
UACC-257 = assay: Growth inhibition of human UACC257 cells assessed as cell growth at 100 uM incubated for 48 hrs by sulforhodamine B assay relative to control; type: functional; conditions: UACC-257, 48 h, read-out: Activity
HL-60(TB) = assay: Growth inhibition of human HL-60(TB) cells assessed as cell growth at 1 uM incubated for 48 hrs by sulforhodamine B assay relative to control; type: functional; conditions: HL-60, 48 h, read-out: Activity
COLO 205 = assay: Growth inhibition of human COLO205 cells incubated for 48 hrs by sulforhodamine B assay; type: functional, cell-based; conditions: COLO 205, 48 h
SW-620 = assay: Growth inhibition of human SW620 cells assessed as cell growth at 100 uM incubated for 48 hrs by sulforhodamine B assay relative to control; type: functional; conditions: SW-620, 48 h, read-out: Activity
[6] = read-out: LC50 (the source's name)
[7] = read-out: pLC50 (the source's name) (converted)

**Q.** What does the source list for `COc1cc(Cl)cc(-c2nn(-c3cccc(NC(=O)c4ccc(N5CCOCC5)c(C(F)(F)F)c4)c3)cc2-c2ccncc2)c1`?
**A.** growth at 0.1 µM (A549): 102%; growth at 0.1 µM (MDA-MB-231): 97%; growth at 100 µM (Malme-3M): 23%; growth at 1 µM (HCT-15): 52%; growth at 0.01 µM (NCI-H23): 92%; GI50 (KM12; read-out: GI50): 5.38 µM; CC50 (KM12; [6]): > 100 µM; TGI (KM12; read-out: TGI): > 100 µM; GI50 (KM12; read-out: pGI50 (converted)): 5.37 µM; CC50 (KM12; [7]): > 100 µM; TGI (KM12; read-out: pTGI (converted)): > 100 µM; GI50 (SK-OV-3; read-out: GI50): > 100 µM; CC50 (SK-OV-3; [6]): > 100 µM; TGI (SK-OV-3; read-out: TGI): > 100 µM; GI50 (SK-OV-3; read-out: pGI50 (converted)): > 100 µM; CC50 (SK-OV-3; [7]): > 100 µM; TGI (SK-OV-3; read-out: pTGI (converted)): > 100 µM; growth at 0.01 µM (MOLT-4): 100%; growth at 0.1 µM (HOP-62): 105%; growth at 0.01 µM (NCI-H460): 102%; GI50 (CCRF-CEM; read-out: GI50): 3.58 µM; CC50 (CCRF-CEM; [6]): > 100 µM; TGI (CCRF-CEM; read-out: TGI): > 100 µM; GI50 (CCRF-CEM; read-out: pGI50 (converted)): 3.89 µM; CC50 (CCRF-CEM; [7]): > 100 µM; TGI (CCRF-CEM; read-out: pTGI (converted)): > 100 µM; growth at 0.1 µM (NCI-H522): 81%; GI50 (ACHN [1]; read-out: GI50): 7.31 µM; CC50 (ACHN [1]; [6]): > 100 µM; TGI (ACHN [1]; read-out: TGI): > 100 µM; GI50 (ACHN [1]; read-out: pGI50 (converted)): 7.24 µM; CC50 (ACHN [1]; [7]): > 100 µM; TGI (ACHN [1]; read-out: pTGI (converted)): > 100 µM; GI50 (SNB-19; read-out: GI50): > 100 µM; CC50 (SNB-19; [6]): > 100 µM; TGI (SNB-19; read-out: TGI): > 100 µM; GI50 (SNB-19; read-out: pGI50 (converted)): > 100 µM; CC50 (SNB-19; [7]): > 100 µM; TGI (SNB-19; read-out: pTGI (converted)): > 100 µM; growth at 0.1 µM (ACHN [2]): 91%; growth at 0.01 µM (T47D): 94%; GI50 (HT-29 [3]; read-out: GI50): 4 µM; CC50 (HT-29 [3]; [6]): > 100 µM; TGI (HT-29 [3]; read-out: TGI): 38 µM; GI50 (HT-29 [3]; read-out: pGI50 (converted)): 4.07 µM; CC50 (HT-29 [3]; [7]): > 100 µM; TGI (HT-29 [3]; read-out: pTGI (converted)): 38 µM; growth at 0.01 µM (OVCAR-8): 99%; growth at 1 µM (DU-145): 105%; growth at 1 µM (SF-295): 73%; growth at 0.01 µM (ACHN [4]): 100%; GI50 (SK-MEL-5; read-out: GI50): 1.55 µM; CC50 (SK-MEL-5; [6]): > 100 µM; TGI (SK-MEL-5; read-out: TGI): > 100 µM; GI50 (SK-MEL-5; read-out: pGI50 (converted)): 16.6 µM; CC50 (SK-MEL-5; [7]): > 100 µM; TGI (SK-MEL-5; read-out: pTGI (converted)): > 100 µM; growth at 100 µM (K562): 2%; growth at 0.1 µM (HT-29 [5]): 93%; growth at 100 µM (UACC-257): -18%; growth at 1 µM (HL-60(TB)): 105%; GI50 (COLO 205; read-out: GI50): 2.22 µM; CC50 (COLO 205; [6]): > 100 µM; TGI (COLO 205; read-out: TGI): > 100 µM; GI50 (COLO 205; read-out: pGI50 (converted)): 22.4 µM; CC50 (COLO 205; [7]): > 100 µM; TGI (COLO 205; read-out: pTGI (converted)): > 100 µM; growth at 100 µM (SW-620): 22%
